Source: patent US7964624B1, “Inhibitors of serine proteases” (priority 2005, dated 2011)

Molecular target: T1, HCV NS3 protease domain (Hepatitis C virus genotype 1b, UniProt Q9WMX2)
T1 construct: The first 181 amino acids of NS3 (residues 1027-1207 of the viral polyprotein); hexa-histidine (C); made in house; host or cells: E. coli BL21/DE3 pLysS
Assay: biochemical
Settings: Enzyme Assay 1 (HCV NS3 Protease Domain Peptide Cleavage Assay) activity, apparent Ki class

T1 sequence (Q9WMX2 1027-1207, other chains not shown): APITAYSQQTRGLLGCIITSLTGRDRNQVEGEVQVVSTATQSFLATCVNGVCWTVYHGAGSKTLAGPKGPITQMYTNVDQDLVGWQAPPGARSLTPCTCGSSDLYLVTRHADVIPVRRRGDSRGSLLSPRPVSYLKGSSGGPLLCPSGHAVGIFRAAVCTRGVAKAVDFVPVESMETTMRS

| Structure (SMILES) | Ki [nM] |
| --- | --- |
| CNC(=O)C(=O)C(CC1CCC1)NC(=O)[C@@H]1C[C@]2(CC(c3cccc(Cl)c3)=NO2)CN1C(=O)[C@@H](NC(=O)CC1CCCCC1)C(C)(C)C (some centres unmarked) [Compound 231] | 100 to 500 |
| CCC[C@H](NC(=O)[C@@H]1C[C@]2(CC(c3ccc(Cl)s3)=NO2)CN1C(=O)[C@@H](NC(=O)CC1CCCCC1)C(C)(C)C)C(=O)C(=O)NC1CC1 [Compound 478] | 100 to 500 |
| CCCC1=NO[C@]2(C1)C[C@@H](C(=O)N[C@@H](CCC)C(=O)C(=O)NC1CC1)N(C(=O)[C@@H](NC(=O)[C@@H](NC(=O)c1cnccn1)C1CCCCC1)C(C)(C)C)C2 [Compound 400] | < 100 |
| CC(C)C[C@H](NC(=O)[C@@H]1C[C@]2(CC(c3cccc(Cl)c3)=NO2)CN1C(=O)[C@@H](NC(=O)CC1CCCCC1)C(C)(C)C)C(=O)C(=O)NC1CC1 [Compound 579] | 100 to 500 |
| CCC[C@H](NC(=O)[C@@H]1C[C@]2(CC(c3ccc(CC)cc3)=NO2)CN1C(=O)O[C@H]1CCOC1)C(=O)C(=O)NC1CC1 [Compound 47] | > 500 |
| CCC[C@H](NC(=O)[C@@H]1C[C@]2(CC(c3cccc(Cl)c3)=NO2)CN1C(=O)[C@@H](NC(=O)c1n[nH]c(=O)c2ccccc12)C(C)(C)C)C(=O)C(=O)NC1CC1 [Compound 381] | 100 to 500 |
| CCC[C@H](NC(=O)[C@@H]1C[C@]2(CC(c3cccc(Cl)c3)=NO2)CN1C(=O)[C@@H](NC(=O)CCc1cccc(OC)c1)C(C)(C)C)C(=O)C(=O)NC1CC1 [Compound 189] | > 500 |
| CCC[C@H](NC(=O)[C@@H]1C[C@]2(CC(c3cccc(Cl)c3)=NO2)CN1C(=O)[C@@H](NC(=O)C1CC=CCC1C(=O)OC)C(C)(C)C)C(=O)C(=O)NC1CC1 (some centres unmarked) [Compound 557] | 100 to 500 |
| CCC[C@H](NC(=O)[C@@H]1C[C@]2(CC(c3cccc(Cl)c3)=NO2)CN1C(=O)[C@@H](NC(=O)N[C@H](COC)C(C)(C)C)C(C)(C)C)C(=O)C(=O)NC1CC1 [Compound 477] | < 100 |
| CCC[C@H](NC(=O)[C@@H]1C[C@]2(CC(c3cccc(Cl)c3)=NO2)CN1C(=O)[C@@H](Nc1cccc(OC)c1)C(C)(C)C)C(=O)C(=O)NC1CC1 [Compound 214] | > 500 |
| CCC[C@H](NC(=O)[C@@H]1C[C@]2(CC(c3cccc(Cl)c3)=NO2)CN1C(=O)[C@@H](NC(=O)CC1CCCCC1)C(C)(C)C)C(=O)C(=O)NCC [Compound 140] | 100 to 500 |
| CCC[C@H](NC(=O)[C@@H]1C[C@]2(CC(c3cccc(Cl)c3)=NO2)CN1C(=O)[C@@H](NC(=O)C1CCCCC1C(=O)N1CCCC1)C(C)(C)C)C(=O)C(=O)NC1CC1 (some centres unmarked) [Compound 311] | > 500 |
| CCC[C@H](NC(=O)[C@@H]1C[C@]2(CC(c3cc(C(F)(F)F)cc(C(F)(F)F)c3)=NO2)CN1C(=O)[C@@H](NC(=O)O[C@H]1CCOC1)C(C)(C)C)C(=O)C(=O)NC1CC1 [Compound 330] | 100 to 500 |
| CCC[C@H](NC(=O)[C@@H]1C[C@]2(CC(c3cccc(Cl)c3)=NO2)CN1C(=O)[C@@H](NC(=O)CCC(C)=O)C(C)(C)C)C(=O)C(=O)NC1CC1 [Compound 44] | 100 to 500 |
| CCC[C@H](NC(=O)[C@@H]1C[C@]2(CC(c3ccc(CC)o3)=NO2)CN1C(=O)[C@@H](NC(=O)CC1CCOCC1)C(C)(C)C)C(=O)C(=O)NC1CC1 [Compound 554] | > 500 |
| CCC[C@H](NC(=O)[C@@H]1C[C@]2(CC(c3cccc(Cl)c3)=NO2)CN1C(=O)[C@@H](NC(=O)C(C)Cn1ccc(C)n1)C(C)(C)C)C(=O)C(=O)NC1CC1 (some centres unmarked) [Compound 474] | > 500 |
| CCC[C@H](NC(=O)[C@@H]1C[C@]2(CC(c3ccc(F)cc3)=NO2)CN1C(=O)[C@@H](NC(C)=O)C(C)(C)C)C(=O)C(=O)NC1CC1 [Compound 331] | > 500 |
| CCC[C@H](NC(=O)[C@@H]1C[C@@]2(CC(c3ccc(C)c(F)c3)=NO2)CN1C(=O)[C@@H](NC(=O)O[C@H]1CCOC1)C(C)(C)C)C(=O)C(=O)NC1CC1 [Compound 423] | > 500 |

| Structure (SMILES) | Ki [nM] |
| --- | --- |
| CCC[C@H](NC(=O)[C@@H]1C[C@]2(CC(c3cccc(Cl)c3)=NO2)CN1C(=O)[C@@H](NC(=O)c1cccc([C@@H](C)C#N)c1)C(C)(C)C)C(=O)C(=O)NC1CC1 [Compound 324] | > 500 |
| CCCC1=NO[C@]2(C1)C[C@@H](C(=O)N[C@@H](CCC)C(=O)C(=O)NC1CC1)N(C(=O)[C@@H](NC(=O)OC1CCOC1)C(C)(C)C)C2 (some centres unmarked) [Compound 243] | > 500 |
| CCC[C@H](NC(=O)[C@@H]1C[C@]2(CC(c3ccc(Cl)c(C)c3)=NO2)CN1C(=O)[C@@H](NC(=O)CC1CCOCC1)C(C)(C)C)C(=O)C(=O)NC1CC1 [Compound 490] | 100 to 500 |
| CCC[C@H](NC(=O)[C@@H]1C[C@]2(CC(c3cccc(Cl)c3)=NO2)CN1C(=O)[C@@H](NC(=O)NC1CCCCC1)C(C)(C)C)C(=O)C(=O)NC1CC1 [Compound 33] | < 100 |
| CCC[C@H](NC(=O)[C@@H]1C[C@]2(CC(c3cccc(Cl)c3)=NO2)CN1C(=O)[C@@H](NC(=O)OCCc1ccccc1)C(C)(C)C)C(=O)C(=O)NC1CC1 [Compound 463] | > 500 |
| CCC[C@H](NC(=O)[C@@H]1C[C@]2(CC(c3ccc(Cl)c(C)c3)=NO2)CN1C(=O)[C@@H](NC(=O)O[C@H]1CCOC1)C(C)(C)C)C(=O)C(=O)NC1CC1 [Compound 109] | < 100 |
| CCC[C@H](NC(=O)[C@@H]1C[C@]2(CC(c3cccc(Cl)c3)=NO2)CN1C(=O)[C@@H](NC(=O)C(F)c1ccccc1)C(C)(C)C)C(=O)C(=O)NC1CC1 (some centres unmarked) [Compound 393] | 100 to 500 |
| CCC[C@H](NC(=O)[C@@H]1C[C@]2(CC(c3ccc4c(c3)CCC(C)(C)O4)=NO2)CN1C(=O)[C@@H](NC(=O)O[C@H]1CCOC1)C(C)(C)C)C(=O)C(=O)NC1CC1 [Compound 150] | 100 to 500 |
| CCC[C@H](NC(=O)[C@@H]1C[C@]2(CC(c3ccccc3)=NO2)CN1C(=O)[C@@H](NC(=O)NCC)C(C)(C)C)C(=O)C(=O)NC1CC1 [Compound 580] | 100 to 500 |
| CCC[C@H](NC(=O)[C@@H]1C[C@]2(CC(c3ccccc3)=NO2)CN1C(=O)CC1CCN(Cc2c(Cl)cccc2Cl)CC1)C(=O)C(=O)NC1CC1 [Compound 53] | > 500 |
| CCC[C@H](NC(=O)[C@@H]1C[C@]2(CC(c3cccc(Cl)c3)=NO2)CN1C(=O)[C@@H](NC(=O)OCCF)C(C)(C)C)C(=O)C(=O)NC1CC1 [Compound 85] | 100 to 500 |
| CCC[C@H](NC(=O)[C@@H]1C[C@]2(CC(c3nn(C)cc3Cl)=NO2)CN1C(=O)[C@@H](NC(=O)CC1CCCCC1)C(C)(C)C)C(=O)C(=O)NC1CC1 [Compound 495] | > 500 |
| CCC[C@H](NC(=O)[C@@H]1C[C@]2(CC(c3ccc4c(c3)OCO4)=NO2)CN1C(=O)[C@@H](NC(=O)O[C@H]1CCOC1)C(C)(C)C)C(=O)C(=O)NC1CC1 [Compound 527] | 100 to 500 |
| CCC[C@H](NC(=O)[C@@H]1C[C@]2(CC(c3cccc(Cl)c3)=NO2)CN1C(=O)[C@@H](NC(=O)Cc1cc2c(cc1Cl)OCO2)C(C)(C)C)C(=O)C(=O)NC1CC1 [Compound 449] | 100 to 500 |
| CCC[C@H](NC(=O)[C@@H]1C[C@]2(CC(c3cccc(C)c3)=NO2)CN1C(=O)[C@@H](NC(=O)O[C@H]1CCOC1)C(C)(C)C)C(=O)C(=O)NC1CC1 [Compound 444] | 100 to 500 |
| CCC[C@H](NC(=O)[C@@H]1C[C@]2(CC(c3ccc4c(c3)OCO4)=NO2)CN1C(=O)[C@@H](NC(=O)O[C@H]1CCOC1)C(C)(C)C)C(=O)C(N)=O [Compound 422] | 100 to 500 |
| CCC[C@H](NC(=O)[C@@H]1C[C@]2(CC(c3ccccc3)=NO2)CN1C(=O)[C@@H](NC(=O)Nc1cccc2ccccc12)C(C)(C)C)C(=O)C(=O)NC1CC1 [Compound 288] | 100 to 500 |
